{
  "source": "patent US11382892B2",
  "about": "“Method for administration” (Hoffmann-La Roche Inc., priority 2012, dated 2022)",
  "system": "tumor proliferation",
  "experiment": "FLT PET imaging of tumor proliferation in patients",
  "assay_type": "in vivo, human",
  "settings": "for FLT PET Average % CBL: cohort average; for FLT PET Median % CBL: cohort median; for FLT PET % CBL Cycle 1: individual patients",
  "protocol": "The 10 mg tablets contain hypromellose acetate succinate, mannitol, microcrystalline cellulose, croscarmellose sodium, colloidal silicon dioxide, and magnesium stearate. The film-coat consists of hypromellose, titanium dioxide, talc, triacetin, iron oxide yellow, and iron oxide red. The 50 mg, 200 mg, and 400 mg film coated tablets contain the excipients hypromellose acetate succinate, croscarmellose sodium, colloidal silicon dioxide, and magnesium stearate. The film-coat consists of polyvinyl alcohol, titanium dioxide, polyethylene glycol, talc, iron oxide yellow, iron oxide red, and iron oxide black. […]\nA negative percent change from baseline is indicative of an antiproliferative effect.",
  "note": "Several values for one entry are separate records, joined by “and”; a condition that tells them apart may be missing. Equal values may be shown once.",
  "data": [
    {"smiles": "COc1cc(C(=O)O)ccc1NC(=O)[C@@H]1N[C@@H](CC(C)(C)C)[C@](C#N)(c2ccc(Cl)cc2F)[C@H]1c1cccc(Cl)c1F", "note": "[Compound A, 4-{[(2R,3S,4R,5S)-4-(4-Chloro-2-fluoro-phenyl)-3-(3-chloro-2-fluoro-phenyl)-4-cyano-5-(2,2-dimethyl-propyl)-pyrrolidine-2-carbonyl]-amino}-3-methoxy-benzoic acid]", "values": [
      {"measurement": "FLT PET Average % CBL", "setting": "BM-A1 800 mg bid Qwk × 3", "result": "−17.0", "unit": "%"},
      {"measurement": "FLT PET Median % CBL", "setting": "BM-A1 800 mg bid Qwk × 3", "result": "−20.5", "unit": "%"},
      {"measurement": "FLT PET % CBL Cycle 1", "setting": "BM-A1 800 mg bid Qwk × 3", "result": "−28.5% and −21.9% and −29.5% and 8.9% and −19.0% and −11.7%"},
      {"measurement": "FLT PET Average % CBL", "setting": "BM-A2 1200 mg bid Qwk × 3", "result": "−0.9", "unit": "%"},
      {"measurement": "FLT PET Median % CBL", "setting": "BM-A2 1200 mg bid Qwk × 3", "result": 3.2, "unit": "%"},
      {"measurement": "FLT PET % CBL Cycle 1", "setting": "BM-A2 1200 mg bid Qwk × 3", "result": "−5.0% and 21.1% and −31.1% and 11.3% and −73.1%"},
      {"measurement": "FLT PET Average % CBL", "setting": "BM-B1 400 mg bid × 5 d", "result": "−43.4", "unit": "%"},
      {"measurement": "FLT PET Median % CBL", "setting": "BM-B1 400 mg bid × 5 d", "result": "−32.2", "unit": "%"},
      {"measurement": "FLT PET % CBL Cycle 1", "setting": "BM-B1 400 mg bid × 5 d", "result": "−82.5% and −29.3% and −23.4% and −32.2%"},
      {"measurement": "FLT PET Average % CBL", "setting": "BM-B2 500 mg bid × 3 d", "result": "−39.2", "unit": "%"},
      {"measurement": "FLT PET Median % CBL", "setting": "BM-B2 500 mg bid × 3 d", "result": "−34.9", "unit": "%"},
      {"measurement": "FLT PET % CBL Cycle 1", "setting": "BM-B2 500 mg bid × 3 d", "result": "−34.9% and −62.4% and −24.7% and −19.4% and −54.5%"},
      {"measurement": "FLT PET Average % CBL", "setting": "BM-B3 500 mg qd × 5 d", "result": "−29.04", "unit": "%"},
      {"measurement": "FLT PET Median % CBL", "setting": "BM-B3 500 mg qd × 5 d", "result": "−31.0", "unit": "%"},
      {"measurement": "FLT PET % CBL Cycle 1", "setting": "BM-B3 500 mg qd × 5 d", "result": "−56.4% and −34.3% and −21.7% and −31% and −1.8%"},
      {"measurement": "antiproliferative effect by FLT PET", "setting": "all doses tested, in particular 3 day and 5 day schedules", "result": "antiproliferative effects was seen in all doses tested"}
    ]}
  ]
}
